The conditions of this data set: Liquid, Ebulliometric method (Recirculating still).

The vapor or sublimation pressure is the equilibrium pressure above the liquid or solid.

Numbers after ± are expanded uncertainties.

With `O` [water], the “vapor or sublimation pressure” value (373.15 K) was 101.3 ± 1.1 kPa. For the compound `CCCO` [propan-1-ol], the “vapor or sublimation pressure” value (370.35 K) came out at 101.3 ± 1.1 kPa.

(Values after the NIST ThermoML archive (doi:10.1016/j.jct.2017.06.014).)
